Data published in patent US20220168430A1, “THERAPEUTIC METHODS FOR TREATING HEPATITIS B” (priority 2019, published 2022).
Read-outs that look alike come from different tables or passages of the source.

System: HBV rcDNA
Test: Dual agent combination in HepDE19 cells, rcDNA by Quantigene 2.0 bDNA assay (Examples 5-8)
Format: cell-based, HBV; HepDE19 (HepG2 human hepatocarcinoma derived)
Details: Hepatitis B virus; for inhibition at 0.005 µM: Compound 1 0.005 μM alone; for inhibition at 0.01 µM: Compound 1 0.010 μM alone; for inhibition at 0.02 µM: Compound 1 0.020 μM alone; for inhibition at 0.039 µM: Compound 1 0.039 μM alone; for inhibition at 0.156 µM: Compound 1 0.156 μM alone
Procedure: In vitro dual agent combination studies were conducted using the method of Prichard and Shipman 1990 (Prichard M N, Shipman C, Jr. 1990. Antiviral Res 14:181-205). The HepDE19 cell culture system is a HepG2 (human hepatocarcinoma) derived cell line that supports HBV DNA replication and cccDNA formation under control the control of a CMV Tet-off promoter system (Guo et al. 2007. J Virol 81:12472-84). HepDE19 (50,000 cells/well) were plated in 96 well collagen-coated tissue-culture treated microtiter plates in DMEM/F12 medium supplemented with 10% fetal bovine serum+1% penicillin-streptomycin with tetracycline (1 μg/mL) and incubated in a humidified incubator at 37° C. and 5% CO2 overnight. Next day, the cells were switched to fresh medium without tetracycline and incubated for 4 hrs at 37° C. and 5% CO2. The cells were switched to fresh medium and treated with inhibitor A and inhibitor B, at concentration range spanning their respective EC50 values. […] The two inhibitors were tested both singly as well as in combinations in a checkerboard fashion such that each concentration of inhibitor A was combined with each concentration of inhibitor B to determine their combination effects on inhibition of rcDNA production. There were four replicates of each concentration combination in each experiment. The plates were incubated for 7 days in a humidified incubator at 37° C. and 5% CO2. The level of rcDNA present in the wells was measured using a Quantigene 2.0 bDNA assay kit (Affymetrix, Santa Clara, Calif.) with HBV specific custom probe set (genotype D ayw) and according to the manufacturer's instructions and read using a luminescence plate reader and the relative luminescence units (RLU) data generated from each well was calculated as % inhibition of the untreated control wells and analyzed using the MacSynergy II program to determine whether the combinations were synergistic, additive or antagonistic using the interpretive guidelines established by Prichard and Shipman (Prichard M N, Shipman C, Jr. 1990. […] Each experiment was repeated at least three times and the averages and standard deviations of individual determinations was calculated to derive the conclusion. Concurrently, in each experiment, the effect of inhibitor combinations on cell viability was assessed using replicate plates in triplicates that were used to determine the ATP content as a measure of cell viability using the Cell-Titer Glo reagent (Promega, Madison, Wis.) as per the manufacturer's instructions.

[1] = HepDE19, Expt 2, read-out: AVERAGE % INHIBITION
[2] = HepDE19, Expt 3 (with ETV), read-out: ADDITIVE INHIBITION
[3] = HepDE19, Expt 3 (with ETV), read-out: AVERAGE % INHIBITION
[4] = HepDE19, Expt 3 (with TDF), read-out: ADDITIVE INHIBITION
[5] = HepDE19, Expt 3 (with TDF), read-out: AVERAGE % INHIBITION

## Cn1cnc(COC(=O)N[C@H]2CCc3c(C(=O)Nc4ccc(F)c(Cl)c4)ccc(F)c32)n1 [Compound 1]
[1]
  inhibition at 0.005 µM: 7.51%
  inhibition at 0.01 µM: 26.3%
  inhibition at 0.02 µM: 40.8%
  inhibition at 0.039 µM: 39.8%
  inhibition at 0.156 µM: 87.4%
HepDE19, Expt 2, Compound 1 1.250 μM alone, read-out: AVERAGE % INHIBITION
  inhibition at 1.25 µM: 98.4%
[2]
  inhibition at 0.005 µM: -5.5%
  inhibition at 0.01 µM: 6.89%
  inhibition at 0.02 µM: 14.2%
  inhibition at 0.039 µM: 43.7%
  inhibition at 0.156 µM: 80.6%
[3]
  inhibition at 0.005 µM: -5.5%
  inhibition at 0.01 µM: 6.89%
  inhibition at 0.02 µM: 14.2%
  inhibition at 0.039 µM: 43.7%
  inhibition at 0.156 µM: 80.6%
HepDE19, Expt 3 (with ETV), Compound 1 1.25 μM alone, read-out: ADDITIVE INHIBITION
  inhibition at 1.25 µM: 98.1%
HepDE19, Expt 3 (with ETV), Compound 1 1.25 μM alone, read-out: AVERAGE % INHIBITION
  inhibition at 1.25 µM: 98.1%
[4]
  inhibition at 0.005 µM: 18.8%
  inhibition at 0.01 µM: 27.3%
  inhibition at 0.02 µM: 44.5%
  inhibition at 0.039 µM: 66.8%
  inhibition at 0.156 µM: 83.6%
[5]
  inhibition at 0.005 µM: 18.8%
  inhibition at 0.01 µM: 27.3%
  inhibition at 0.02 µM: 44.5%
  inhibition at 0.039 µM: 66.8%
  inhibition at 0.156 µM: 83.6%
HepDE19, Expt 3 (with TDF), Compound 1 1.250 μM alone, read-out: ADDITIVE INHIBITION
  inhibition at 1.25 µM: 98.8%
HepDE19, Expt 3 (with TDF), Compound 1 1.250 μM alone, read-out: AVERAGE % INHIBITION
  inhibition at 1.25 µM: 98.8%
HepDE19, Expt 3, Cmpd 1 0.007 μM alone, read-out: AVERAGE % INHIBITION
  inhibition at 0.007 µM: 6.78%
HepDE19, Expt 3, Cmpd 1 0.067 μM alone
  inhibition at 0.067 µM: 64.7%
HepDE19, Expt 3, Cmpd 1 0.200 μM alone
  inhibition at 0.2 µM: 92.7%
HepDE19, Expt 3, Cmpd 1 0.600 μM alone
  inhibition at 0.6 µM: 97.4%
HepDE19, Expt 3, Compound 1 0.007 μM alone, read-out: AVERAGE % INHIBITION
  inhibition at 0.007 µM: -51.7%
HepDE19, Expt 3, Compound 1 0.067 μM alone
  inhibition at 0.067 µM: 51.8%
HepDE19, Expt 3, Compound 1 0.200 μM alone
  inhibition at 0.2 µM: 85.5%
HepDE19, Expt 3, Compound 1 0.600 μM alone
  inhibition at 0.6 µM: 94.6%
HepDE19, Expt 4, Compound 1 0.007 μM alone, read-out: AVERAGE % INHIBITION
  inhibition at 0.007 µM: 11.7%
HepDE19, Expt 4, Compound 1 0.067 μM alone
  inhibition at 0.067 µM: 52.8%
HepDE19, Expt 4, Compound 1 0.200 μM alone
  inhibition at 0.2 µM: 90%
HepDE19, Expt 4, Compound 1 0.600 μM alone
  inhibition at 0.6 µM: 96.4%
